According to patent publication US20150125526A1 (Raptor Pharmaceuticals Inc., priority 2013, published 2015):

Columns and labels:
[1] = tested on: intracellular cystine (circulating white blood cells); conditions: cited from earlier work
Sod2 null mice [2] = assay: Administration of cysteamine bitartrate to Sod2 null mice: survival, weight gain, toxicity; format: in vivo; conditions: cysteamine bitartrate 30 mg/kg, single dose
Description: Sod2 null mice provide a method for determining the efficacy in vivo of compounds having antioxidant properties, particularly those with mitochondrial efficacy. Without antioxidant efficacy, Sod2 null mice die after approximately 1 week, with antioxidant intervention, the lifespan can be extended 3-fold using powerful catalytic synthetic antioxidants such as EUK-189 (Melov et al., J Neurosci. 21(21):8348-53, 2001).
A single dose of the test agent is administered to the animals, either intraperitoneally or subcutaneously.

Sod2 null mice [3] = conditions: untreated Sod2 null mice die after approximately 1 week; cited from earlier work
[4] = tested on: mice with the gene mutation for Huntington's disease; conditions: mouse, in vivo; cited from earlier work
FRDA fibroblasts = conditions: preincubation prior to exposure to BSO; cited from earlier work

Compound: NCCS [cysteamine, Cysteamine (HS—CH2—CH2—NH2)]
- time to observed decrease in leukocyte cystine ([1]; delivery of cysteamine into the small intestine (WO 2007/089670)): within an hour
- depletion of intracellular cystine ([1]; taken regularly, measured in circulating white blood cells): up to 90%
- weight gain compared to untreated animals (Sod2 null mice [2]; initial experiment): normal
- survival analysis (Sod2 null mice [2]; preliminary experiment): inconclusive

Compound: CC(=O)O.CCOc1cccc(C=NCCN=Cc2cccc(OCC)c2[O-])c1[O-].[Mn] [EUK-189]
- extension of lifespan (Sod2 null mice [3]): 3 fold

Compound: NCCSSCCN [Cystamine]
- life (survival) [4]: prolong life
- tremors [4]: alleviate tremors

Compound: vitamin E
- protection from cell death (FRDA fibroblasts): protected cells from cell death

Compound: COC1=C(OC)C(=O)C(CCCCCCCCCCO)=C(C)C1=O [idebenone]
- protection from cell death (FRDA fibroblasts): protected cells from cell death
